Test results from PubChem BioAssay AID2060340 (Molecular Pharmacology Branch, DTP, NCI, 2025).
Values joined by “and” are separate entries in the source; they are usually repeats but may differ in a detail not shown here. Equal entries are not always repeated.

Tested on: 349418-098-R-PDC spheroids, viability, % test/control
Experiment: Anticancer human tumor 349418-098-R-PDC patient-derived lung adenocarcinoma cell line growth inhibition [IpAb]
Settings: spheroids with HUVEC and MSC; for viability, T/C: stronger effect = lower value
Procedure, shortened: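 Multi-cell spheroids of 60% tumour cells, 25% HUVEC and 15% MSC in ultra-low-attachment U-bottom wells, treated with agents combined with ipatasertib or abemaciclib. Half-log ranges top out near clinical Cmax, or 10 microM when Cmax is unknown.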

[1] = curve of first compound, second compound 0.01 µM
[2] = curve of first compound, second compound 0.0316 µM
[3] = curve of first compound, second compound 0.1 µM
[4] = curve of first compound, second compound 0.316 µM
[5] = curve of first compound, second compound 1 µM
[6] = second compound 0.01 µM, first compound 0.0316 µM
[7] = second compound 0.01 µM, first compound 0.1 µM
[8] = second compound 0.0316 µM, first compound 0.0316 µM
[9] = second compound 0.0316 µM, first compound 0.1 µM
[10] = second compound 0.1 µM, first compound 0.0316 µM
[11] = second compound 0.1 µM, first compound 0.1 µM
[12] = second compound 0.316 µM, first compound 0.0316 µM
[13] = second compound 0.316 µM, first compound 0.1 µM
[14] = second compound 1 µM, first compound 0.0316 µM
[15] = second compound 1 µM, first compound 0.1 µM
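Further: spheroids exposed to compounds for 7 days.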

For `CC(C)n1nc(-c2ccc3oc(N)nc3c2)c2c(N)ncnc21` + CCN1CCN(Cc2ccc(Nc3ncc(F)c(-c4cc(F)c5nc(C)n(C(C)C)c5c4)n3)nc2)CC1, the IC50 [1] was 0.659 nM, the IC50 [2] was less than 0.316 nM and the IC50 [3] was less than 0.316 nM. For the same compound, the IC50 [4] was less than 0.316 nM, the IC50 [5] was less than 0.316 nM and the viability, T/C (second compound 0.01 µM, first compound 0.000316 µM) was 78.5%. It also gave a viability, T/C (second compound 0.01 µM, first compound 0.001 µM) of 33.8%, a viability, T/C (second compound 0.01 µM, first compound 0.00316 µM) of 13.3% and a viability, T/C (second compound 0.01 µM, first compound 0.01 µM) of 8.46%. The viability, T/C [6] was 7.29%, the viability, T/C [7] was 6.79% and the viability, T/C (second compound 0.0316 µM, first compound 0.000316 µM) was 38.4%. The viability, T/C (second compound 0.0316 µM, first compound 0.001 µM) was 22.3%, the viability, T/C (second compound 0.0316 µM, first compound 0.00316 µM) was 10.4% and the viability, T/C (second compound 0.0316 µM, first compound 0.01 µM) was 6.7%. The viability, T/C [8] was 6.75%, the viability, T/C [9] was 6.38% and the viability, T/C (second compound 0.1 µM, first compound 0.000316 µM) was 26.9%. It also gave a viability, T/C (second compound 0.1 µM, first compound 0.001 µM) of 14.9%, a viability, T/C (second compound 0.1 µM, first compound 0.00316 µM) of 10.1% and a viability, T/C (second compound 0.1 µM, first compound 0.01 µM) of 7.85%. For the same compound, the viability, T/C [10] was 6.9%, the viability, T/C [11] was 6.67% and the viability, T/C (second compound 0.316 µM, first compound 0.000316 µM) was 20.2%. It also gave a viability, T/C (second compound 0.316 µM, first compound 0.001 µM) of 13.6%, a viability, T/C (second compound 0.316 µM, first compound 0.00316 µM) of 9.36% and a viability, T/C (second compound 0.316 µM, first compound 0.01 µM) of 7.22%. The viability, T/C [12] was 7.46%, the viability, T/C [13] was 6.4% and the viability, T/C (second compound 1 µM, first compound 0.000316 µM) was 14.4%. The viability, T/C (second compound 1 µM, first compound 0.001 µM) was 12.4%, the viability, T/C (second compound 1 µM, first compound 0.00316 µM) was 8.8% and the viability, T/C (second compound 1 µM, first compound 0.01 µM) was 7.28%. The viability, T/C [14] was 7.88% and the viability, T/C [15] was 6.96%.
`CCCS(=O)(=O)Nc1ccc(F)c(C(=O)c2c[nH]c3ncc(-c4ccc(Cl)cc4)cc23)c1F` + CCN1CCN(Cc2ccc(Nc3ncc(F)c(-c4cc(F)c5nc(C)n(C(C)C)c5c4)n3)nc2)CC1 showed an IC50 [1] of 91.3 nM, an IC50 [2] of less than 31.6 nM and an IC50 [3] of less than 31.6 nM. It also gave an IC50 [4] of less than 31.6 nM, an IC50 [5] of less than 31.6 nM and a viability, T/C [6] of 59.7%. It also gave a viability, T/C [7] of 50.3%, a viability, T/C (second compound 0.01 µM, first compound 0.316 µM) of 32.9% and a viability, T/C (second compound 0.01 µM, first compound 1 µM) of 37.3%. The viability, T/C (second compound 0.01 µM, first compound 3.16 µM) was 27.6%, the viability, T/C (second compound 0.01 µM, first compound 10 µM) was 16.7% and the viability, T/C [8] was 34.7%. It also gave a viability, T/C [9] of 23.7%, a viability, T/C (second compound 0.0316 µM, first compound 0.316 µM) of 27.6% and a viability, T/C (second compound 0.0316 µM, first compound 1 µM) of 28.3%. The viability, T/C (second compound 0.0316 µM, first compound 3.16 µM) was 20.8%, the viability, T/C (second compound 0.0316 µM, first compound 10 µM) was 11.4% and the viability, T/C [10] was 18.8%. For the same compound, the viability, T/C [11] was 17.6%, the viability, T/C (second compound 0.1 µM, first compound 0.316 µM) was 17.3% and the viability, T/C (second compound 0.1 µM, first compound 1 µM) was 17.2%. The viability, T/C (second compound 0.1 µM, first compound 3.16 µM) was 14.2%, the viability, T/C (second compound 0.1 µM, first compound 10 µM) was 8.97% and the viability, T/C [12] was 14.3%. It also gave a viability, T/C [13] of 13.6%, a viability, T/C (second compound 0.316 µM, first compound 0.316 µM) of 12.5% and a viability, T/C (second compound 0.316 µM, first compound 1 µM) of 10.8%. The viability, T/C (second compound 0.316 µM, first compound 3.16 µM) was 10.5%, the viability, T/C (second compound 0.316 µM, first compound 10 µM) was 9.39% and the viability, T/C [14] was 14.1%. For the same compound, the viability, T/C [15] was 11.8%, the viability, T/C (second compound 1 µM, first compound 0.316 µM) was 11.1% and the viability, T/C (second compound 1 µM, first compound 1 µM) was 9.39%. For the same compound, the viability, T/C (second compound 1 µM, first compound 3.16 µM) was 9.24% and the viability, T/C (second compound 1 µM, first compound 10 µM) was 7.05%.
With `C=CCn1c(=O)c2cnc(Nc3ccc(N4CCN(C)CC4)cc3)nc2n1-c1cccc(C(C)(C)O)n1` the viability, T/C (compound 0.0316 µM) was 91.8% and 105%, the viability, T/C (compound 0.1 µM) was 84.5% and 88.7% and the viability, T/C (compound 0.316 µM) was 18.8% and 26.7%. For the same compound, the viability, T/C (compound 1 µM) was 5.04% and 4.87%, the viability, T/C (compound 3.16 µM) was 4.87% and 4.84% and the viability, T/C (compound 10 µM) was 6.19% and 4.54%. The IC50 (curve of compound) was 183 nM and 205 nM.
